The source of these data is patent publication US7964531B2, “3-phenoxy-4-pyridazinol derivatives and herbicidal composition containing the same” (Mitsui Chemicals Agro, Inc., priority 2001, dated 2011).

Consider `Oc1cc(Cl)nnc1Oc1cccc2ccoc12` [Compound No. 541, 3-(1-Benzofuran-7-yloxy)-6-chloro-4-pyridazinol], for which the melting point (usually the temperature, or range, at which the solid turns liquid) fell in the range of 201 to 202 °C.

`CC(=O)c1cc(O)c(Oc2ccccc2C)nn1` [Compound No. 2455, 1-[5-Hydroxy-6-(2-methylphenoxy)-3-pyridazinyl]ethanone] registered a melting point of 182 to 185 °C. Compound `Cc1cccc(C2CC2)c1Oc1nnc(Cl)cc1OC(=O)C(C)(C)CCl` [Compound No. 2703, 6-Chloro-3-(2-cyclopropyl-6-methylphenoxy)-4-pyridazinyl 3-chloro-2,2-dimethylpropanoate] had a melting point of 112 to 115 °C. The compound `COc1ccc(OC)c(Oc2nnc(Cl)cc2O)c1` [Compound No. 709, 6-Chloro-3-(2,5-dimethoxyphenoxy)-4-pyridazinol] returned a melting point of 150 to 152 °C. In the case of `Oc1cc(Cl)nnc1Oc1cccc(Cl)c1Cl` [Compound No. 443, 6-Chloro-3-(2,3-dichlorophenoxy)-4-pyridazinol], the melting point was in the range of 233 to 238 °C. In the case of `Oc1cc(Cl)nnc1Oc1c(Cl)cccc1C1CC1` [Compound No. 740, 6-Chloro-3-(2-chloro-6-cyclopropylphenoxy)-4-pyridazinol], the melting point was in the range of 224 to 225 °C. Compound `N#C/C=C/c1ccccc1Oc1nnc(Cl)cc1O` [Compound No. 306, (2E)-3-{2-[(6-Chloro-4-hydroxy-3-pyridazinyl)oxy]phenyl}acrylonitrile] came in with a melting point of 190 to 192 °C. For `Cc1ccc(C(=O)O)cc1Oc1nnc(Cl)cc1O` [Compound No. 626, 3-[(6-Chloro-4-hydroxy-3-pyridazinyl)oxy]-4-methylbenzoic acid], the melting point lay in the range of 238 to 240 °C. In turn, `Cc1cccc(C2CC2)c1Oc1nnc(Cl)cc1OC(=O)c1ccc(C(=O)Oc2cc(Cl)nnc2Oc2c(C)cccc2C2CC2)cc1` [Compound No. 3001, Bis[6-chloro-3-(2-cyclopropyl-6-methylphenoxy)-4-pyridazinyl]terephthalate] showed a melting point of 247 to 249 °C. The compound `COc1ccc(Br)c(Oc2nnc(Cl)cc2O)c1C` [Compound No. 1066, 3-(6-Bromo-3-methoxy-2-methylphenoxy)-6-chloro-4-pyridazinol] yielded a melting point of 246 to 253 °C. In the case of `CCCCCCc1ccccc1Oc1nnc(Cl)cc1O` [Compound No. 138, 6-Chloro-3-(2-hexylphenoxy)-4-pyridazinol], the melting point is 118 to 118.5 °C. Compound `COC(=O)c1ccc(OC)c(Oc2nnc(Cl)cc2O)c1` [Compound No. 2574, Methyl 3-[(6-chloro-4-hydroxy-3-pyridazinyl)oxy]-4-methoxybenzoate] showed a melting point of 115 to 123 °C. As for `Oc1cc(Cl)nnc1Oc1ccccc1-c1nc2ccccc2s1` [Compound No. 376, 3-[2-(1,3-Benzothiazol-2-yl)phenoxy]-6-chloro-4-pyridazinol], the figure is 215 to 217 °C; as for `Oc1ccccc1Oc1nnc(Cl)cc1O` [Compound No. 384, 6-Chloro-3-(2-hydroxyphenoxy)-4-pyridazinol], 216 to 219 °C; as for `Cc1cc(C)c(Cl)c(Oc2nnc(Cl)cc2O)c1C` [Compound No. 2599, 6-Chloro-3-(2-chloro-3,5,6-trimethylphenoxy)-4-pyridazinol], 298 to 300 °C.

For the compound `Cc1ccccc1Oc1nnc(Cl)cc1OS(=O)(=O)c1ccc(Cl)cc1` [Compound No. 2198, 6-Chloro-3-(2-methylphenoxy)-4-pyridazinyl 4-chlorobenzenesulfonate], the melting point lay in the range of 93 to 94 °C. In turn, `Oc1cc(Cl)nnc1Oc1ccccc1-c1nc2ccccc2o1` [Compound No. 375, 3-[2-(1,3-Benzoxazol-2-yl)phenoxy]-6-chloro-4-pyridazinol] returned a melting point of 165 to 167 °C.

Take `Cc1ccccc1Oc1nnc(Cl)cc1OS(=O)(=O)c1ccc([N+](=O)[O-])cc1` [Compound No. 2287, 6-Chloro-3-(2-methylphenoxy)-4-pyridazinyl 4-nitrobenzenesulfonate]: the melting point was in the range of 166 to 169 °C. In the case of `CC(C)c1cccc(Oc2nnc(Cl)cc2O)c1` [Compound No. 415, 6-Chloro-3-(3-isopropylphenoxy)-4-pyridazinol], the melting point was 176 to 177 °C.

`Cc1ccc(S(=O)(=O)Oc2cc(Cl)nnc2Oc2ccccc2-c2ccccc2)cc1` [Compound No. 2231, 3-([1,1′-Biphenyl]-2-yloxy)-6-chloro-4-pyridazinyl 4-methylbenzenesulfonate]: the melting point lay within 106 to 108 °C.

`Oc1cc(Cl)nnc1Oc1cccc2c1CCC2` [Compound No. 506, 6-Chloro-3-(2,3-dihydro-1H-inden-4-yloxy)-4-pyridazinol] showed a melting point of 230 to 232 °C.

In the case of `CC(C)(C)c1cccc(Br)c1Oc1nnc(Cl)cc1O` [Compound No. 761, 3-(2-Bromo-6-tert-butylphenoxy)-6-chloro-4-pyridazinol], the melting point was 240 to 247 °C. Compound `Cc1cc(C)c(Br)c(Oc2nnc(Cl)cc2O)c1C` [Compound No. 1124, 3-(2-Bromo-3,5,6-trimethylphenoxy)-6-chloro-4-pyridazinol] had a melting point of 280 to 290 °C.

For `CSc1c(C)cc(C)cc1Oc1nnc(Cl)cc1O` [Compound No. 1027, 6-Chloro-3-[3,5-dimethyl-2-(methylsulfanyl)phenoxy]-4-pyridazinol], the melting point lay within 213 to 214 °C. As for `CN(C)S(=O)(=O)n1ccc(-c2ccccc2Oc2nnc(Cl)cc2O)n1` [Compound No. 368, 3-{2-[(6-Chloro-4-hydroxy-3-pyridazinyl)oxy]phenyl}N,N-dimethyl-1H-pyrazole-1-sulfonamide], the melting point fell in the range of 210 to 212 °C. As for `Cc1cccc(C2CC2)c1Oc1nnc(Cl)cc1OC(=O)c1cc(Cl)ccc1Cl` [Compound No. 3100, 6-Chloro-3-(2-cyclopropyl-6-methylphenoxy)-4-pyridazinyl 2,5-dichlorobenzoate], the figure is 128 to 130 °C. Regarding `Oc1cc(Cl)nnc1Oc1cccc2sccc12` [Compound No. 534, 3-(1-Benzothien-4-yloxy)-6-chloro-4-pyridazinol], the melting point fell in the range of 181 to 183 °C. As for `N#Cc1cccc(Oc2nnc(Cl)cc2O)c1` [Compound No. 420, 3-[(6-Chloro-4-hydroxy-3-pyridazinyl)oxy]benzonitrile], the figure is 226 to 229 °C. The compound `CC1(C)Cc2c(Oc3nnc(Cl)cc3O)cccc21` [Compound No. 2556, 6-Chloro-3-[(7,7-dimethylbicyclo[4.2.0]octa-1,3,5-trien-2-yl)oxy]-4-pyridazinol] showed a melting point of 197 to 199 °C.

For the compound `Cc1ccc(S(=O)(=O)Oc2cc(Cl)nnc2Oc2c(C)cccc2C)cc1` [Compound No. 2263, 6-Chloro-3-(2,6-dimethylphenoxy)-4-pyridazinyl 4-methylbenzenesulfonate], the melting point lay in the range of 89 to 90 °C.

Take `Cc1ccc(C(C)C)c(Oc2nnc(Cl)cc2OC(=O)c2ccccc2C)c1` [Compound No. 1459, 6-Chloro-3-(2-isopropyl-5-methylphenoxy)-4-pyridazinyl 2-methylbenzoate]: the melting point lay within 95 to 97 °C. `Oc1cc(Cl)nnc1Oc1cccc(C(F)(F)F)c1F` [Compound No. 441, 6-Chloro-3-[2-fluoro-3-(trifluoromethyl)phenoxy]-4-pyridazinol] yielded a melting point of 185 to 189 °C.
